Laboratory results reported in patent publication US20110183978A1, “Phenylpyri(mi)dinylazoles” (Bayer CropScience AG, priority 2009, published 2011).
Like-named read-outs stand apart in the source and are kept apart here.

Key:
Alternaria solani = experiment: Example M: in vivo test on Alternaria solani (leaf blotch disease/tomato/protective); conditions: 168 h, tomato, protective, 500 ppm active substance, assessed 7 days after inoculation, read-out: % Wirkungsgrad (activity level)
Outline: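 Protective test: young tomato plants sprayed with active substance (in DMF with alkylaryl polyglycol ether emulsifier, diluted in water) at the stated dosage, then inoculated with Alternaria solani. Disease assessed 7 days after inoculation.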

Fusarium proliferatum = experiment: Example I: production of fumonisin FB1 by Fusarium proliferatum (microtitre plates); type: cell-based; conditions: 120 h
Botrytis cinerea = experiment: Example P: in vivo test on Botrytis cinerea (gray mould on bean/protective); conditions: 48 h, bean, protective, 250 ppm active substance, assessed 2 days after inoculation, read-out: % Wirkungsgrad (activity level)
Procedure: (§1) Emulsifier: 1 part by weight alkylaryl polyglycol ethers For the preparation of a suitable active substance preparation, 1 part by weight of active substance is mixed with the stated quantities of solvent and emulsifier and the concentrate is diluted to the desired concentration with water. For the testing for protective activity, young plants are sprayed with the active substance preparation at the stated application dosage. After drying of the spray coating, 2 small pieces of agar with Botrytis cinerea growing on them are laid on every leaf. […] 2 days after the inoculation, the size of the infection blotches on the leaves is assessed.

Fusarium graminearum = experiment: microbe, parasite or virus in culture; type: cell-based
Venturia inaequalis = experiment: Example O: in vivo test on Venturia inaequalis (apple scab/protective); conditions: 240 h, protective, assessment 10 days after inoculation, read-out: % Wirkungsgrad
Procedure: as §1, with “dosage.” for “dosage. After drying of the spray coating, 2 small pieces of agar with Botrytis cinerea growing on them are laid on every leaf.”, “10” for “2”, “assessment takes place.” for “size of the infection blotches on the leaves is assessed.”

Sphaerotheca fuliginea = experiment: Example L: in vivo test on Sphaerotheca fuliginea (powdery mildew on cucumber/protective); conditions: Podosphaera fuliginea, 168 h, cucumber, protective, assessment 7 days after inoculation, read-out: % Wirkungsgrad
Procedure: Solvent: 49 parts by weight N,N-dimethylformamide Emulsifier: 1 part by weight alkylaryl polyglycol ethers For the preparation of a suitable active substance preparation, 1 part by weight of active substance is mixed with the stated quantities of solvent and emulsifier and the concentrate is diluted to the desired concentration with water. For the testing for protective activity, young cucumber plants are sprayed with the active substance preparation at the stated application dosage. One day after the treatment, the plants are inoculated with a spore suspension of Sphaerotheca fuliginea. Next, the plants are placed in a greenhouse at 70% relative atmospheric humidity and a temperature of 23° C. 7 days after the inoculation, the assessment takes place.

[1] = Fusarium proliferatum growth, OD 620, 5 days, read-out: % Inhibition des Pilzwachstums bei 50 μM
[2] = Fusarium proliferatum, 5 days at 20° C., HPLC-MS/MS, read-out: % Inhibition der FB1 produktion bei 50 μM
[3] = 72 h, read-out: % Inhibition des Pilzwachstums bei 50 μM
[4] = 168 h, read-out: % Inhibition der DON/AcDON produktion bei 50 μM
[5] = LogPA (logP of the stated pure compound or, in a mixture, of the main isomer, 1-substituted 3-aryl-1H-pyrazole)

SMILES	pest or weed control at 500 ppm (Alternaria solani) [%]	chromatographic logP (physchem; LogPA)	inhibition at 50 µM (Fusarium proliferatum; [1]) [%]	inhibition at 50 µM (Fusarium proliferatum; [2]) [%]	pest or weed control at 250 ppm (Botrytis cinerea) [%]	inhibition at 50 µM (Fusarium graminearum; [3]) [%]	inhibition at 50 µM (Fusarium graminearum; [4]) [%]	pest or weed control at 100 ppm (Venturia inaequalis) [%]	pest or weed control at 500 ppm (Sphaerotheca fuliginea) [%]	chromatographic logP (physchem; [5])
CCC(=O)Nc1cc(-c2cn(C3CCN(C(=O)OC(C)(C)C)CC3)nc2-c2ccc(F)cc2)ccn1 [Compound 193]	93	3.03	0	85						
CCOC(=O)Nc1cc(-c2cn(C(C)CC)nc2-c2ccc(F)cc2)ccn1 (stereo not shown) [Compound 268]	80	3.08			100	32	90	98	100	
Fc1ccc(-c2nn(C3CCCCO3)cc2-c2ccnc3[nH]ccc23)cc1 (stereo not shown) [Compound 20]			65	100		21	87			2.08
CCOCCn1cc(-c2ccncc2)c(-c2ccc(F)cc2)n1 [Compound 179]	100	1.25			100			100	74	
COCC(=O)Nc1cc(-c2cn(CC(C)C)nc2-c2ccc(F)cc2)ccn1 [Compound 166]	95	2.96	98	100		84	100		97	
CCC(=O)Nc1cc(-c2c(-c3ccc(Cl)cc3F)nn(C)c2SC)ccn1 [Compound 195]	80	2.7	17	100		0	80			
COCCn1cc(-c2ccnc(NC(=O)COC)c2)c(-c2ccc(F)cc2)n1 [Compound 163]	93		72	100		100	100		93	2.05
CCC(=O)Nc1cc(-c2cn(CCOC)nc2-c2ccc(F)cc2)ccn1 [Compound 153, N-{4-[3-(4-fluorophenyl)-1-(2-methoxyethyl)-1H-pyrazol-4-yl]pyridin-2-yl}propanamide]	90		48	100		56	100			1.61
CC(=O)Nc1cc(-c2cn(CC(F)F)nc2-c2ccc(F)cc2)ccn1 [Compound 242]	88	1.74			99			89	97	
Clc1ccc(-c2c(-c3ccncc3)cnn2C2CCCCO2)cc1 (stereo not shown) [Compound 70, 4-[5-(4-chlorophenyl)-1-(tetrahydro-2H-pyran-2-yl)-1H-pyrazol-4-yl]pyridine]			0	92						1.52
Cc1nccc(-c2cn(C3CCCCO3)nc2-c2ccc(F)cc2)n1 (stereo not shown) [Compound 29]	78		34	82					70	2.53
CC(C)Cn1cc(-c2ccncn2)c(-c2cccc(Cl)c2)n1 [Compound 5]	90		79	100		97	100		70	3.27
CCC(=O)Nc1cc(-c2cn(CC3CC3(Cl)Cl)nc2-c2ccc(F)cc2)ccn1 (stereo not shown) [Compound 249]	94	2.8			100			96	92	
N#Cc1cccc(-c2c(-c3ccncc3)cnn2C2CCCCO2)c1 (stereo not shown) [Compound 60, 3-[4-(pyridin-4-yl)-1-(tetrahydro-2H-pyran-2-yl)-1H-pyrazol-5-yl]benzonitrile]			92	100						1.23
Fc1ccc(-c2nn(C3CCCCO3)cc2-c2ccnc3ccccc23)cc1 (stereo not shown) [Compound 54]			47	100		31	85			2.46
COCC(=O)Nc1cc(-c2c(-c3ccc(Cl)cc3F)nn(C)c2SC)ccn1 [Compound 200]	93	3	1	99						
CCC(=O)Nc1cc(-c2c(-c3ccc(F)cc3O)nn(C)c2OC(F)F)ccn1 [Compound 196]	100	2.12	25	100						
CCC(=O)Nc1cc(-c2cn(Cc3ccccc3F)nc2-c2ccc(F)cc2)ccn1 [Compound 213]	90	2.69	56	100	91	0	100		74	
COCC(=O)Nc1cc(-c2cn(CC(F)F)nc2-c2ccc(F)cc2)ccn1 [Compound 216]	95	2.27	97	100					89	
Fc1ccc(-c2nn(C3CCCCO3)cc2-c2ncnc3[nH]ccc23)cc1 (stereo not shown) [Compound 66]			40	85						1.69
CC(C)(C)n1cc(-c2ccncc2)c(-c2ccc(F)cc2)n1 [Compound 58]			42	89						2.62
COCC(=O)Nc1cc(-c2cn(CC3CC3)nc2-c2ccc(F)cc2)ccn1 [Compound 223]	90	2.61	96	100		99	97		91	
CC(C)n1cc(-c2ccnc(NC(=O)C(C)(C)O)c2)c(-c2ccc(F)cc2)n1 [Compound 209]	95	2.42			100			89	100	
CC(C)(O)C(=O)Nc1cc(-c2cn(CC(F)F)nc2-c2ccc(F)cc2)ccn1 [Compound 243]	100	2.18			75			98	95	
CC(C)n1cc(-c2ccnc(NC(=O)c3ccccc3)c2)c(-c2ccc(F)cc2)n1 [Compound 205]	95	3.2			100			91	100	
CC(C)C(=O)Nc1cc(-c2cn(CC3CC3(Cl)Cl)nc2-c2ccc(F)cc2)ccn1 (stereo not shown) [Compound 254]	94	3.17				16	99	73	92	
N#CCn1cc(-c2ccncc2)c(-c2ccc(F)cc2)n1 [Compound 180]		0.89			93			96		
CC(C)Cn1cc(-c2ccnc(NC(=O)C3CC3)c2)c(-c2ccc(F)cc2)n1 [Compound 165]	95		90	100		64	100		86	2.6
FC(F)(F)c1cccc(-c2nn(C3CCCCO3)cc2-c2ccnc3[nH]ccc23)c1 (stereo not shown) [Compound 50]			8	89						2.93
c1ccc(Oc2ccc(-c3c(-c4ccncc4)cnn3C3CCCCO3)cc2)cc1 (stereo not shown) [Compound 59, 4-[5-(4-phenoxyphenyl)-1-(tetrahydro-2H-pyran-2-yl)-1H-pyrazol-4-yl]pyridine]			0	95						1.88
